Laboratory results published in article PMC12849875, “CYP4X1/sEH‐Dependent Endocannabinoid Metabolism Drives Fibroblast‐Mediated Immunosuppression to Limit Immunotherapy in Colon Cancer” (Advanced Science, 2025).

Assays:
[1] = target: T1, GPR119 (Homo sapiens, UniProt Q8TDV5); assay: cAMP accumulation in heterologous expression system; PathHunter β-arrestin […] recruitment (EC50 =[…]); format: cell-based
T1 sequence (Q8TDV5 1-335): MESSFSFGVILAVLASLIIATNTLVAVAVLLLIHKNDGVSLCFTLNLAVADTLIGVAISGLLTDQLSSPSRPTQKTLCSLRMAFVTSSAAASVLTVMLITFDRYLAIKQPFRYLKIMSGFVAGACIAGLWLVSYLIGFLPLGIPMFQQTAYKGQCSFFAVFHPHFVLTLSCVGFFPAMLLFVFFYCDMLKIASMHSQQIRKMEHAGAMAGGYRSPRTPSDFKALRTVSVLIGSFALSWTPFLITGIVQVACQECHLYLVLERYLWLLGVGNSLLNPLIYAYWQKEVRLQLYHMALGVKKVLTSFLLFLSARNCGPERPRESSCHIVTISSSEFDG

[2] = target: T1, GPR119; assay: cAMP accumulation in heterologous expression system, positive control agonist; format: cell-based

| Compound | EC50 [1] [µM] | cAMP accumulation in heterologous expression system, positive control agonist [2] |
| --- | --- | --- |
| CCCCCC1OC1C/C=C\C/C=C\C/C=C\CCCC(=O)NCCO (centres unmarked) [14,15-EET-EA] | 3.74 | – |
| CCCCCCCC/C=C\CCCCCCCC(=O)NCCO [OEA] | – | OEA, the most potent endogenous agonist of GPR119, was used as the positive control. |
